Our source for the IC50 and GI50 values is patent publication US8383816B2, “Aryl-quinolyl compounds and their use” (Cancer Research Technology Limited, priority 2008, dated 2013).

One experiment has as its system pERK. Briefly: Cell Based Phospho-ERK Assay. The following applies: 6 h, cells incubated with test compound for 6 hours. As for the experimental part: Biological Methods—Cell Based Phosho-ERK Assay
Compounds were assessed using a cell-based assay which was performed according to the following protocol.
Plate out 16,000 cells/well in 99 μL medium in a 96-well plate.
1. Add 1 μL inhibitor to the cells […].
2. Incubate the cells with test compound for 6 hours at 37° C.
3. Aspirate off the solution from all of the wells.
4. Fixate the cells with 100 μL 4% formaldehyde/0.25% Triton X-100 PBS per well.
5. Incubate the plate for 1 hour at 4° C.
6. Aspirate off the fixing solution and add 300 μL TBS per well.
7. Leave the plate overnight at 4° C.
1. Wash the plate 2× with 200 μL PBS per well.
2. Block with 100 μL 5% dried milk in TBS.
3. Incubate the plate for 20 minutes at 37° C.
4. Wash the plate 2× with 0.1% tween/H2O.
5. Add 50 μL of 3 μg/mL primary antibody pERK (Sigma M8159), diluted in 5% milk powder/TBS, to each well.
6. Incubate the plate for 2 hours at 37° C.
7. Wash the plate 3× with 0.1% tween/H2O.
8. Add 50 μL of 0.45 μg/mL secondary Europium-labelled anti-mouse antibody (Perkin Elmer) to each well.
9. Incubate the plate for 1 hour at 37° C.
10. Wash the plate 3× with 0.1% tween/H2O.
11. Add 100 μL enhancement solution (Perkin Elmer) to each well.
12. Leave the plate for approximately 10 minutes at room temperature before gently shaking the plate.
13. Read Europium Time Resolved Fluorescence in Victor2.
14. Wash the plate 2× with 0.1% tween/H2O.
15. Measure the protein concentration with BCA (Sigma) by adding 200 μL of solution per well.
16. Incubate the plate for 30 minutes at 37° C.
17. Read absorbance levels at 570 nm in a plate reader.
Note that Europium counts are normalised for protein levels by dividing counts by absorbance.
(§1) Values for the blank (no cells) are subtracted from all values. The DMSO controls are set as 100% activity and assay points (the response) are calculated as a percentage of the DMSO control. Data are plotted using Graphpad Prism software and a non-linear regression line is calculated using a variable slope sigmoidal dose-response equation (Y=Bottom+(Top−Bottom)/(1+10^((LogEC50−X)*HillSlope)) where X is the logarithm of concentration. Y is the response). The IC50 generated by this procedure is the concentration of the drug that produces a percentage control fluorescence value midway between the saturation, and zero-effect plateaus. Three independent assays are usually performed and the mean IC50 is reported.

In a further experiment the test system is WM266.4 melanoma cells. Briefly: SRB Cell Proliferation Assay (SRB GI50). The format is cell-based. The following applies: Homo sapiens, WM 266-4, 144 h, 6 days growth. As for the experimental part: Biological Methods—SRB Cell Proliferation Assay (SRB GI50)
Cultures of WM266.4 melanoma cells are routinely cultured in DMEM/10% foetal bovine serum, at 37° C., in 5% CO2 water saturated atmosphere. Cultures are maintained in exponential growth phase by sub-culturing before having become confluent (3-5 day intervals). Single cell suspensions are prepared by harvesting an 80 cm^2 tissue culture flask with 5 mL commercial trypsin EDTA. After 5 minutes, the detached cells are mixed with 5 mL fully complemented culture medium and centrifugally pelleted (1000 rpm for 7 minutes). After aspirating the supernatant, the cell pellet is re-suspended in 10 mL fresh medium and the cells fully disaggregated by drawing the whole volume up/down 5 times through a 19-gauge needle. The concentration of the cells is determined using a haemocytometer (1/10 dilution). A suitable volume to give at least a 2-fold excess for the number of tests being conducted, typically 100-200 mL, is prepared by diluting the cell suspension to 10,000/mL, and 100 μL/well dispensed into 96 well plates using a programmable 8-channel peristaltic pump, giving 1000 cells/well, leaving column 12 blank. The plates are returned to the incubator for 24 hours to allow the cells to re-attach.
The compounds being tested are prepared at 20 mM in dimethylsulphoxide. Aliquots (200 μL) are diluted into 20 mL culture medium giving 200 μM, and 10 serial dilutions of 3× performed by transferring 5 mL to 10 mL. Aliquots (100 μL) of each dilution are added to the wells, using an 8-channel pipettor, thus performing a final further 2× dilution, and giving doses ranging from 100 μM to 0.005 μM. Column 11 receives plain culture medium only. Each compound is tested in quadruplicate, each replicate being the average of four wells, and two plates per compound.
After a further 6 days growth, the plates are emptied, and the cells are fixed in 10% trichloroacteic acid for 10 minutes on ice. After thorough rinsing in running tap water, the plates are dried, and stained by adding 50 μL of a solution of 0.1% sulphorhodamine-B in 1% acetic acid, for 10 minutes at room temperature. The stain is poured out and the plates thoroughly rinsed under a stream of 1% acetic acid, thus removing unbound stain, and dried. The bound stain is taken into solution by addition of 150 μL Tris buffer pH 8, followed by 10 minutes on a plate-shaker (approximately 500 rpm). The absorbance at 540 nm in each well (being proportional to the number of cells present) is determined using a plate reader.
After averaging the results in rows A-D and E-H, the blank value (row 12) is subtracted, and results expressed as percentage of the untreated value (row 11). […] The GI50 generated by this procedure is the concentration of the drug that produces a percentage control A540 midway between the saturation, and zero-effect plateaus.

The next experiment has as its target B-RAF (Homo sapiens, UniProt P15056, V600E). Kind of experiment: DELFIA Kinase Assay. Type of experiment: biochemical. Particulars: 100 μM ATP. As for the experimental part:
Biological Methods—DELFIA Kinase Assay
Compounds were assessed by a kinase assay performed according to the following protocol.
DELFIA Kinase Buffer (DKB):
DKB1 (DKB with B-RAF and MEK Protein):
Combine 4950 μL of DKB and 50 μL of 2.5 mg/ml GST-MEK stock (to give […] of MEK per 40 μL). Then add 22.5 μL of B-RAF to give ˜0.2 μL of B-RAF per 40 μL.
DKB2 (DKB with MEK Protein):
Combine 4950 μL of DKB and 50 μL of 2.5 mg/ml GST-MEK stock (to give 1 mg of MEK per 40 μL). Use 500 μL of this for the blow out (BO) and the empty vector (EV) control.
100 mM stock, dilute to 500 μM to give 100 μM final concentration in assay.
Inhibitors (Test Compounds):
Phospho-MEK½ CST #9121S diluted 1:1000 in DELFIA assay buffer (AB). Preincubate antibody in the AB for 30 minutes at room temperature prior to use.
Anti-rabbit-Eur labelled secondary Perkin Elmer #AD0105 diluted 1:1000 in DELFIA assay buffer (AB). Preincubate antibody in the AB for 30 minutes at room temperature prior to use. (Primary and secondary antibodies were incubated together.)
1. Preblock wells with 5% milk in TBS for 1 hour.
2. Wash wells with 3× with 200 μL TBS.
3. Plate out 40 μL of DKB1 for all inhibitors (test compounds), DMSO control, and optionally other control compounds.
4. Plate out 40 μL of DKB2 for BO and EV wells.
5. Add inhibitors (test compounds) at 0.5 μL per well according to desired plate layout.
6. Add 0.5 μL DMSO to vehicle control wells.
7. Add 2 μL of B-RAF to BO and EV wells.
8. Pre-incubate with inhibitors (test compounds) for 10 minutes at room temperature with shaking.
9. Add 10 μL of 500 μM ATP stock, in DKB, to give 100 μM assay concentration.
10. Seal plates with TopSeal and incubate at room temperature with shaking for 45 minutes.
11. Wash plates 3× with 200 μL 0.1% Tween20/Water to terminate reaction.
12. Add 50 μL per well of antibody mix and incubate for 1 hour at room temperature with shaking.
13. Wash plates 3× with 200 μL 0.1% Tween20/Water.
14. Add 100 μL DELFIA enhancement solution per well, cover in foil, and incubate at room temperature for 30 minutes with shaking.
15. Read on Victor using Europium protocol.
as §1, with “(Empty Vector)” for “(no cells)”

Chain of B-RAF (P15056 whole entry V600E): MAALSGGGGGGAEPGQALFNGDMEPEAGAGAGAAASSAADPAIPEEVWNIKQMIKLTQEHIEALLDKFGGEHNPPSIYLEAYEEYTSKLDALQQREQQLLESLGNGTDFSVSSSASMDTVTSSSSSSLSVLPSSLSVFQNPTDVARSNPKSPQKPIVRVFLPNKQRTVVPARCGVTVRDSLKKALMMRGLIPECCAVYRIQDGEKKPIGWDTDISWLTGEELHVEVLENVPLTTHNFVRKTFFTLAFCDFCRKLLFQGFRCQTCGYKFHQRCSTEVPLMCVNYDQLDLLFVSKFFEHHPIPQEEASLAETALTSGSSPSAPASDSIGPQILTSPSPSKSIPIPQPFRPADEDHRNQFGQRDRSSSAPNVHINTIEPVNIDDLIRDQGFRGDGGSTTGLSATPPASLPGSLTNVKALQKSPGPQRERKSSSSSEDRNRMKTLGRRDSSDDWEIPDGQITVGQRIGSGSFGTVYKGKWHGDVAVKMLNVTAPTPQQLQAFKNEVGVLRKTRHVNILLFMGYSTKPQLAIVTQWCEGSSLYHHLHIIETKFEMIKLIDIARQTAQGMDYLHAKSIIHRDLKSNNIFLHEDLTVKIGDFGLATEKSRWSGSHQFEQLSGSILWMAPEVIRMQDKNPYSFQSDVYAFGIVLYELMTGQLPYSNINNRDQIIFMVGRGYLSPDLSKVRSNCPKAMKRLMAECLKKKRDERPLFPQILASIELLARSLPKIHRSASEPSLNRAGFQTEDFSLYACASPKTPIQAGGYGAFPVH

As usually defined, the IC50 is the concentration at which inhibition is half-maximal. A word on the GI50: it is the concentration that inhibits growth by half. Low readings indicate more potent growth inhibition, high ones less potent growth inhibition. Consider `CC(C)(C)c1cc(NC(=O)Nc2ccc(Oc3ccnc4[nH]c(=O)cnc34)c3cccnc23)n(-c2ccccc2)n1` [BB-008, 5-[(8-Amino-quinolinyl-5-oxy)carbonylamino-5-(1-N-phenyl-3-t-butyl-imidazolyl)]-pyridin-[2,3]pyrazin-2-one], for which the values for the half-maximal inhibitory concentration (IC50) in the experiment with pERK and against B-RAF were no more than 10 µM and no more than 1 µM, respectively. In addition, the concentration for 50% growth inhibition (GI50) in the experiment on WM266.4 melanoma cells was no more than 10 µM.

For the compound `C=CCn1nc(C(C)(C)C)cc1NC(=O)Nc1ccc(Oc2ccnc3[nH]c(=O)c(C)nc23)c2cccnc12` [BB-009], the figures for the IC50 in the experiment on pERK and against B-RAF were no more than 10 µM and no more than 1 µM, respectively. In the experiment with WM266.4 melanoma cells, this compound showed a GI50 of no more than 10 µM.

As for `C#CCn1nc(C(C)(C)C)cc1NC(=O)Nc1ccc(Oc2ccnc3[nH]c(=O)c(C)nc23)c2cccnc12` [BB-011], the figures for the IC50 with pERK and on B-RAF were no more than 10 µM and no more than 1 µM, respectively. This compound yielded a concentration for 50% growth inhibition (GI50) with WM266.4 melanoma cells of no more than 10 µM.

Regarding `C#CCn1nc(C(C)(C)C)cc1NC(=O)Nc1ccc(Oc2ccnc3[nH]c(=O)cnc23)c2cccnc12` [BB-012], the figures for the IC50 in the experiment on pERK and against B-RAF were no more than 10 µM and no more than 1 µM, respectively. Further, in the experiment on WM266.4 melanoma cells, the GI50 was no more than 10 µM.

For the compound `C=CCn1nc(C(C)(C)C)cc1NC(=O)Nc1ccc(Oc2ccnc3[nH]c(=O)cnc23)c2cccnc12` [BB-013], the values for the IC50 in the experiment with pERK and on B-RAF were no more than 10 µM and no more than 1 µM, respectively. The 50% growth inhibitory concentration (GI50) in the experiment with WM266.4 melanoma cells was no more than 10 µM.
